Reference: article PMC11530130, “Peripherally restricted PICK1 inhibitor mPD5 ameliorates pain behaviors in murine inflammatory and neuropathic pain models” (JCI Insight, 2024)
“And” between values parts separate entries of the source, which are not always exact repeats. Equal values may be shown once.

Legend:
[1] = Size exclusion chromatography (SEC), self-assembly; format: physicochemical; conditions: Superdex200 Increase 10/300; independent of initial concentration
Method: (§1) SUPPORTING INFORMATION: Method Section.
(§2) Sex as a biological variable.
(§3) All peptides were ordered from WuXI AppTec (Shanghai, China) or TAG-Copenhagen […]
(§4) Protein expression and purification.
(§5) Full length rat PICK1 (pET41) was, as described earlier (1), expressed in BL21-DE3-pLysS and grown at 37 °C, induced at OD600= 0.6 with 1 mM IPTG, and grown for 16 hours at 20 °C.
Cultures were harvested and re-suspended in 50 mM Tris, 125 mM NaCl, 2 mM DTT (Sigma), 1% Triton X-100 (Sigma), 20 µg/mL DNAse 1 and half a tablet of cOmplete protease inhibitor cocktail (Roche) pr. 1 L culture. The resuspended pellets were frozen at -80 °C for later purification. The lysate was cleared by centrifugation (36,000 x g for 30 min at 4 °C), and the supernatant was incubated with Glutathione-Sepharose 4B beads (GE Healthcare) for two hours at 4 °C under gentle rotation and then centrifuged at 4000 x g for 5 min. The supernatant was removed, and the beads were washed twice in 35 mL 50 mM Tris, 125 mM NaCl, 2 mM DTT, and 0.01% Triton-X100. The beads were transferred to PD-10 Bio-Spin® Chromatography columns (Bio-Rad) and washed with an additional 3 column volumes. Each column was sealed and 0.075 U/µL, Novagen® was added for cleavage O/N at 4 °C under gentle rotation. PICK1 was eluted on ice and concentration was measured on a NanoDrop 3000. […]
Size Exclusion Chromatography (SEC). […]

[2] = molecular target: PICK1 (Rattus norvegicus, UniProt Q9EP80); experiment: Fluorescence polarization competition binding; set-up: Full length rat PICK1 (pET41) was, as described earlier (1), expressed in BL21-DE3-pLysS; made in house; host or cells: E. coli BL21-DE3-pLysS
Sequence of PICK1 (Q9EP80 whole entry): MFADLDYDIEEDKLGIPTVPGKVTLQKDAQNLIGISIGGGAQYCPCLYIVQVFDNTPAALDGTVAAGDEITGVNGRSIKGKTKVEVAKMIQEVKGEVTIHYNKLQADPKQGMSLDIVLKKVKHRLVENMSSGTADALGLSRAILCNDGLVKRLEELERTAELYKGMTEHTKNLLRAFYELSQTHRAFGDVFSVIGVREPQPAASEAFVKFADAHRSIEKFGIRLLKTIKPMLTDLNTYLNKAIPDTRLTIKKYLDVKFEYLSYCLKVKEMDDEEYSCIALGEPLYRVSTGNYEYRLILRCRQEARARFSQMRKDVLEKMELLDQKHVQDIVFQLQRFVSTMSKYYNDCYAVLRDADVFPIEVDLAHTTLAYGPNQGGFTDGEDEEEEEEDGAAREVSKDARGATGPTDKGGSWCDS
Method: as §1, §2, §3, §4, §5
Cultures were harvested and re-suspended in 50 mM Tris, 125 mM NaCl, 2 mM DTT (Sigma), 1% Triton X-100 (Sigma), 20 µg/mL DNAse 1 and half a tablet of cOmplete protease inhibitor cocktail (Roche) pr. 1 L culture. The resuspended pellets were frozen at -80 °C for later purification. The lysate was cleared by centrifugation (36,000 x g for 30 min at 4 °C), and the supernatant was incubated with Glutathione-Sepharose 4B beads (GE Healthcare) for two hours at 4 °C under gentle rotation and then centrifuged at 4000 x g for 5 min. The supernatant was removed, and the beads were washed twice in 35 mL 50 mM Tris, 125 mM NaCl, 2 mM DTT, and 0.01% Triton-X100. The beads were transferred to PD-10 Bio-Spin® Chromatography columns (Bio-Rad) and washed with an additional 3 column volumes. Each column was sealed and 0.075 U/µL, Novagen® was added for cleavage O/N at 4 °C under gentle rotation. PICK1 was eluted on ice and concentration was measured on a NanoDrop 3000.
Fluorescence polarization binding.
The competition binding assay was carried out using a fixed concentration of PICK1 (0.5 µM) […]
binding surface 96 well plates (Sigma-Aldrich, Ref. no. 3686). The plates were incubated 20 min on ice and the fluorescence polarization was measured on an Omega POLARstar plate reader (BMG LABTECH) using excitation filter of 485 nm and long pass emission filter of 520 nm. The data was plotted and fitted to a competitive binding One Site fit using GraphPad […]
Superdex200 Increase 10/300.

[3] = molecular target: human serum albumin (HSA) (Homo sapiens, UniProt P02768); experiment: FIDA binding to human serum albumin
Sequence of human serum albumin (HSA) (P02768 25-609): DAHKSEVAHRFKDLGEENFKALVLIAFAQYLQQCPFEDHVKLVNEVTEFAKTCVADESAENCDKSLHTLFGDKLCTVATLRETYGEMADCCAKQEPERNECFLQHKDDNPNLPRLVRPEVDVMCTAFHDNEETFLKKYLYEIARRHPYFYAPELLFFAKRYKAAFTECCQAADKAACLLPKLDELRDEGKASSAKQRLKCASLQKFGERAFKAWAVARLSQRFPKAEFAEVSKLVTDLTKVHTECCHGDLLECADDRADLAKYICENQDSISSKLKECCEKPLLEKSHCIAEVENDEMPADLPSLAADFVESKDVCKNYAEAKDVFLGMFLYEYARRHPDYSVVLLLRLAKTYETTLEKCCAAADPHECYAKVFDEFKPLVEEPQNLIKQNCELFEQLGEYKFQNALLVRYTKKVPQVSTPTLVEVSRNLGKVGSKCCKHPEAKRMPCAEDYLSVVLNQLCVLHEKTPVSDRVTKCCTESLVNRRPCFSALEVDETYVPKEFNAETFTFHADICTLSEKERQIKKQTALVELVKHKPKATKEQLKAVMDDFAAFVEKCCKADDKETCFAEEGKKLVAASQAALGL
Method: Flow-induced dispersion analysis (FIDA).
FIDA was carried out using a fluorescently labelled (AF488-NHS) mPD5 analogue, and
(100 nM), using the standard protocol recommended by the manufacturer, in short, mPD5 and
sample was injected into the capillary followed by a buffer injection. The diffusion of the
curve smoothing. Resulting hydrodynamic radius was plotted using GraphPad Prism 8.3.

[4] = tested on: mice, spared nerve injury (SNI) model; experiment: SNI model 18 weeks after surgery, von Frey, sustained s.c. administration; format: in vivo, mouse; set-up: von Frey threshold, Fig 7C, individual mice: unit not given here; conditions: for duration of effect on mechanical hypersensitivity: SNI 18 weeks after surgery
Method: Repeated and sustained administration of mPD5 in the SNI model. […]
For the first experiment with sustained administration of mPD5 (Figure 7C), the mice underwent a baseline von Frey reading as described in the “Mechanically-evoked pain (von Frey).”-section and SNI surgery as described in “Induction of neuropathic pain (SNI model).”-section. Approximately 18 weeks (125 days) after SNI surgery, hyperalgesia was confirmed with von Frey. On the same day, mice were injected s.c. with 10 μmol/kg mPD5 and evoked pain was tested again at 1 hour after injection. Then, mice were injected s.c. with either 2+2+2 μmol/kg mPD5 (group A) or PBS (group B) once an hour for 3 hours. At 4,5 hours after the 10 μmol/kg mPD5 injection paw withdrawal threshold was measured again followed by a s.c. injection of 2 μmol/kg mPD5 in all animals. The PWT was measured again at 6 hours +7 hours + 8 hours + 9 hours + 10 hours + 11 hours + 22 hours + 23 hours + 25 hours + 27 hours + 49 hours + 121 hours after the initial 10 μmol/kg mPD5 injection performed on day 125. […]

[5] = Plasma exposure after repeated s.c. administration (10 + 2 + 2 + 2 + 2 μmol/kg), LC-MS/MS; format: in vivo, mouse; conditions: 10µmol/kg repeated

SMILES: CCCCCCCCCCCCCC(=O)N(CCOCCOCCC(=O)N[C@@H](Cc1c[nH]cn1)C(=O)N[C@@H](Cc1c[nH]c2ccccc12)C(=O)N[C@@H](CC(C)C)C(=O)N[C@@H](CCCCN)C(=O)N[C@H](C(=O)O)C(C)C)CCOCCOCCC(=O)N[C@@H](Cc1c[nH]cn1)C(=O)N[C@@H](Cc1c[nH]c2ccccc12)C(=O)N[C@@H](CC(C)C)C(=O)N[C@@H](CCCCN)C(=O)N[C@H](C(=O)O)C(C)C [mPD5, myristoyl-NPEG4-(HWLKV)2]
- SEC elution volume [1]: approximately 14.2 mL
- Ki [2]: 3 nM
- affinity gain compared with D5 (HWLKV) alone ([2]; from Ki,app): approximately 1000 fold
- affinity gain compared with PD5 ([2]; from Ki,app): 30 fold
- HSA species bound, from RH [3]: binds to dimeric HSA
- von Frey threshold, contralateral paw, Fig 7C, individual mice ([4]; A-contra, time 9 post første inj og time 4 post sidste inj): 1.4 (3×) and 1 (5×)
- von Frey threshold, contralateral paw, Fig 7C, individual mice ([4]; A-contra, time 10 post første inj og time 5 post sidste inj): 1 (4×) and 1.4 (3×) and 0.6
- von Frey threshold, contralateral paw, Fig 7C, individual mice ([4]; A-contra, time 11 post første inj og time 6 post sidste inj): 1.4 (2×) and 2 (2×) and 1 (4×)
- von Frey threshold, contralateral paw, Fig 7C, individual mice ([4]; A-contra, time 22 post første inj og time 17 post sidste inj): 1.4 (4×) and 0.6 and 1 (3×)
- von Frey threshold, contralateral paw, Fig 7C, individual mice ([4]; A-contra, time 23 post første inj og time 18 post sidste inj): 1.4 (6×) and 0.6 and 1
- von Frey threshold, contralateral paw, Fig 7C, individual mice ([4]; A-contra, time 25 post første inj og time 20 post sidste inj): 1 (7×) and 1.4
- von Frey threshold, contralateral paw, Fig 7C, individual mice ([4]; A-contra, time 27 post første inj og time 22 post sidste inj): 1.4 (3×) and 1
- von Frey threshold, contralateral paw, Fig 7C, individual mice ([4]; B-contra, time 9 post første inj og time 4 post sidste inj): 1 (4×) and 1.4 (3×) and 2
- von Frey threshold, contralateral paw, Fig 7C, individual mice ([4]; B-contra, time 10 post første inj og time 5 post sidste inj): 1.4 (4×) and 2 (2×) and 1 (2×)
- von Frey threshold, contralateral paw, Fig 7C, individual mice ([4]; B-contra, time 11 post første inj og time 6 post sidste inj): 1 (2×) and 2 (2×) and 1.4 (4×)
- von Frey threshold, contralateral paw, Fig 7C, individual mice ([4]; B-contra, time 22 post første inj og time 17 post sidste inj): 1.4 (3×) and 1 (2×) and 2 (3×)
- von Frey threshold, contralateral paw, Fig 7C, individual mice ([4]; B-contra, time 23 post første inj og time 18 post sidste inj): 1 (2×) and 2 (3×) and 1.4 (2×) and 0.6
- von Frey threshold, contralateral paw, Fig 7C, individual mice ([4]; B-contra, time 25 post første inj og time 20 post sidste inj): 1.4 (5×) and 1 and 2 and 0.6
- duration of effect on mechanical hypersensitivity ([4]; 10 + 2 + 2 + 2 + 2 μmol/kg s.c., 1 hour between injections (Group A), from first injection): 25 h
- duration of effect on mechanical hypersensitivity ([4]; without consecutive administration (reference, 10 + 0 + 0 + 0 + 2 μmol/kg)): 1 h
- von Frey threshold, Fig 7C, individual mice ([4]; group A, time 9 post første inj og time 4 post sidste inj): 2 and 1.4 and 0.6 and 0.4 (2×) and 1 (3×)
- von Frey threshold, Fig 7C, individual mice ([4]; group A, time 10 post første inj og time 5 post sidste inj): 1.4 (2×) and 2 and 0.4 (3×) and 0.6 and 1
- von Frey threshold, Fig 7C, individual mice ([4]; group A, time 11 post første inj og time 6 post sidste inj): 1.4 and 1 (3×) and 0.16 and 0.4 and 0.6 (2×)
- von Frey threshold, Fig 7C, individual mice ([4]; group A, time 22 post første inj og time 17 post sidste inj): 0.6 (2×) and 1 (2×) and 0.16 (2×) and 0.4 and 1.4
- von Frey threshold, Fig 7C, individual mice ([4]; group A, time 23 post første inj og time 18 post sidste inj): 1.4 and 0.6 (2×) and 0.16 and 0.07 (2×) and 1 and 0.4
- von Frey threshold, Fig 7C, individual mice ([4]; group A, time 25 post første inj og time 20 post sidste inj): 0.16 (2×) and 2 and 0.6 (3×) and 0.4 and 1.4
- von Frey threshold, Fig 7C, individual mice ([4]; group A, time 27 post første inj og time 22 post sidste inj): 0.4
- von Frey threshold, Fig 7C, individual mice ([4]; group B, time 9 post første inj og time 4 post sidste inj): 1 and 0.4 (3×) and 0.07 (2×) and 0.6 and 0.16
- von Frey threshold, Fig 7C, individual mice ([4]; group B, time 10 post første inj og time 5 post sidste inj): 0.4 (3×) and 0.16 (2×) and 0.07 (3×)
- von Frey threshold, Fig 7C, individual mice ([4]; group B, time 11 post første inj og time 6 post sidste inj): 0.4 (2×) and 0.16 (3×) and 0.07 (3×)
- von Frey threshold, Fig 7C, individual mice ([4]; group B, time 22 post første inj og time 17 post sidste inj): 0.16 (5×) and 0.07 (3×)
- von Frey threshold, Fig 7C, individual mice ([4]; group B, time 23 post første inj og time 18 post sidste inj): 0.16 (3×) and 0.4 (2×) and 0.07 (3×)
- von Frey threshold, Fig 7C, individual mice ([4]; group B, time 25 post første inj og time 20 post sidste inj): 0.6 and 0.16 (4×) and 0.4 and 0.07 (2×)
- von Frey threshold, Fig 7C, individual mice ([4]; group B, time 27 post første inj og time 22 post sidste inj): 0.6 and 0.07 and 0.16
- Plasma exposure, Fig 7B, individual mice [5]: 2068 and 1389 and 1614
